The source of these data is ChEMBL document CHEMBL5036378, “Discovery of 5-Aryl-2,4-diaminopyrimidine Compounds as Potent and Selective IRAK4 Inhibitors” (ACS Med Chem Lett, 2022).

In data set [1] the target is T1, Mitogen-activated protein kinase kinase kinase 7 (Homo sapiens, UniProt O43318).
T1 sequence (O43318 whole entry): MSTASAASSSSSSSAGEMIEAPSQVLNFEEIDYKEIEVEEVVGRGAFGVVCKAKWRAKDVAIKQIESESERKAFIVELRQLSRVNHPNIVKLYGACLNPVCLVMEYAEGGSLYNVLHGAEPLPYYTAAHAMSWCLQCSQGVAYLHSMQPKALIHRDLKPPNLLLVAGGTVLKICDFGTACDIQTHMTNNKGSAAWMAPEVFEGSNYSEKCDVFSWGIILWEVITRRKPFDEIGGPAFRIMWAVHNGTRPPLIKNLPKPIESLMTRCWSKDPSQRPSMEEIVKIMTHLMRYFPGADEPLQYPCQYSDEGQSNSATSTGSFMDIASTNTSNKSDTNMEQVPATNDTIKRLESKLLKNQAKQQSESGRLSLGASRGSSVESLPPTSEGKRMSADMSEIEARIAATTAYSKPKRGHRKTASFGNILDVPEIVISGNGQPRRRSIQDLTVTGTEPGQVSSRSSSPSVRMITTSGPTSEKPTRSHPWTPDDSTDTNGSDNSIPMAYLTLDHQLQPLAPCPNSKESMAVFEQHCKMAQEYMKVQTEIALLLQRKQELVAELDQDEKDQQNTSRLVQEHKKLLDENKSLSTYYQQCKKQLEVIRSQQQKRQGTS
As to the kind of experiment: Inhibition of TAK1 (unknown origin) in presence of MBP as substrate by ADP-Glo assay. Background: In ADP-Glo the light output rises with the ADP produced.

Data set [2] addresses T2, Interleukin-1 receptor-associated kinase 4 (Homo sapiens, UniProt Q9NWZ3).
T2 sequence (Q9NWZ3 whole entry): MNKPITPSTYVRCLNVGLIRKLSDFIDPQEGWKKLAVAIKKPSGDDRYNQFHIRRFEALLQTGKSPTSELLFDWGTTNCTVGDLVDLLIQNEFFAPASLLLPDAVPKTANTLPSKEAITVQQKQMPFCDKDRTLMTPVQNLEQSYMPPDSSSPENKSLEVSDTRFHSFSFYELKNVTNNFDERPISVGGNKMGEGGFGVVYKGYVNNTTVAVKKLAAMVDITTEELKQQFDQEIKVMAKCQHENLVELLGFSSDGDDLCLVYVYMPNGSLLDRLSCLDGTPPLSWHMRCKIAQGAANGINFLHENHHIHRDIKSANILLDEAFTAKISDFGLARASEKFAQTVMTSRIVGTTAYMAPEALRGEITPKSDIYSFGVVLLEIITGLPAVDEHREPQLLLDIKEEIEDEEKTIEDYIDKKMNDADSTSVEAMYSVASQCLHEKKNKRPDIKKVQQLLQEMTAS
Kind of data set: Inhibition of IRAK4 (unknown origin) in presence of MBP as substrate by ADP-Glo assay.

The next data set relates to THP-1. Kind of data set: Antiinflammatory activity against human THP-1 cells assessed as inhibition of LPS induced IL-23 production preincubated with compound for 1 hr followed by LPS stimulation and measured after 18 hrs by cell based ELISA method. The data set is classed as functional. In general terms: ELISA stands for enzyme-linked immunosorbent assay.
Data set [3] in a line: Drug concentration in female BALB/c mouse plasma at 75 mg/kg, po incubated for 30 mins followed by IL-1beta administration and measured after 30 mins. In kind it is ADME, organism-based. To be noted: time 60 min, read-out: Drug uptake.
The next data set deals with Blood. Kind of data set: Antiinflammatory activity against human whole blood assessed as inhibition of IL-1beta induced MIP-1beta production preincubated with compound for 1 hr followed by IL-1beta stimulation and measured after 12 hrs by cell based ELISA method. The data set is classed as functional, tissue-based.
Data set [4] concerns HUVEC. Kind of data set: Antiinflammatory activity against HUVEC cells assessed as inhibition of LPS induced IL-6 production measured by ELISA method. The data set is classed as functional, cell-based. To be noted: Homo sapiens.
Data set [5] can be described thus: Antiinflammatory activity against human monocyte derived dendritic cells assessed as inhibition of LPS induced IL-23 production preincubated with compound for 1 hr followed by LPS stimulation and measured after 18 hrs by cell based ELISA method. The data set is classed as functional.
In the next data set the test system is Mus musculus. Kind of data set: Antiinflammatory activity in female BALB/c mouse assessed as inhibition of IL-1beta induced IL-6 levels at 75 mg/kg, po for 30 mins followed by IL-1beta administration and measured after 1.5 hrs by ELISA method. To be noted: time 2 hrs. The data set is classed as functional.
The test system of data set [6] is HUVEC. Kind of data set: Antiinflammatory activity against HUVEC cells assessed as inhibition of IL-1beta induced IL-6 production preincubated with compound for 1 hr followed by IL-1beta stimulation and measured after 12 hrs by cell based ELISA method. The data set is classed as functional. To be noted: Homo sapiens.

SMILES strings stand for the structures.

One may read the IC50 as the concentration that gives 50% inhibition. As to `NC(=O)[C@@H]1[C@H](Nc2nc(Nc3cccc(C(=O)N4CCCC4)c3)ncc2-c2ccncc2)[C@H]2C=C[C@@H]1C2`, the results for the IC50 (in data set [1]; in [2]; in the data set with THP-1) were 230 nM, 10 nM and 320 nM, respectively.
For `NC(=O)[C@@H]1[C@H](Nc2nc(Nc3cccc(-c4cnco4)c3)ncc2-c2cccc(F)c2)[C@H]2C=C[C@@H]1C2`, in that order: 270 nM, 25 nM and 390 nM.
As for `NC(=O)[C@@H]1[C@H](Nc2nc(Nc3cccc(C(=O)N4CCCC4)c3)ncc2-c2ccoc2)[C@H]2C=C[C@@H]1C2`, the IC50 in the data set with THP-1 was 40 nM.
The same measure, in the same setting: as for `Cc1cnc(Nc2cccc(C(=O)N3CCCC3)c2)nc1N[C@H]1[C@@H](C(N)=O)[C@@H]2C=C[C@H]1C2`, the figure is 100 nM; as for `N#Cc1ccc(-c2cnc(Nc3cccc(C(=O)N4CCCC4)c3)nc2N[C@H]2[C@@H](C(N)=O)[C@@H]3C=C[C@H]2C3)cc1`, 190 nM.
With `NC(=O)[C@@H]1[C@H](Nc2nc(Nc3cccc(C(=O)N4CCCC4)c3)ncc2-c2cncc(F)c2)[C@H]2C=C[C@@H]1C2`, the concentration at 1 h in [3] stood at 2880 ng/mL.
As for `NC(=O)[C@@H]1[C@H](Nc2nc(Nc3cccc(C(=O)N4CCCC4)c3)ncc2-c2ccsc2)[C@H]2C=C[C@@H]1C2`, the half-inhibitory concentration (IC50) in data set [1] amounted to 27 nM; in data set [2], 5 nM; in the data set on THP-1, 110 nM.
As for `CN1CCN(c2ccc(Nc3ncc(-c4cccc(F)c4)c(N[C@H]4[C@@H](C(N)=O)[C@@H]5C=C[C@H]4C5)n3)cn2)CC1`, the values for the IC50 (in data set [1]; in data set [2]; in the data set on THP-1) were 280 nM, 26 nM and 240 nM, respectively.
For `NC(=O)[C@@H]1[C@H](Nc2nc(Nc3ccc(-c4cnco4)cc3)ncc2-c2cccc(F)c2)[C@H]2C=C[C@@H]1C2`, in that order: 390 nM, 37 nM and 290 nM.
For `NC(=O)[C@@H]1[C@H](Nc2nc(Nc3cccc(C(=O)N4CCCC4)c3)ncc2-c2cccc(F)c2)[C@H]2C=C[C@@H]1C2`, in that order: 24 nM, 4 nM and 870 nM.
For the compound `NC(=O)[C@@H]1[C@H](Nc2nc(Nc3ccc(C(=O)N4CCCC4)cc3)ncc2-c2cccnc2)[C@H]2C=C[C@@H]1C2`, the IC50 is 250 nM in [1], 26 nM in [2] and 230 nM with THP-1.
For `NC(=O)[C@@H]1[C@H](Nc2nc(Nc3cc(F)cc(N4CCOCC4)c3)ncc2-c2cccc(F)c2)[C@H]2C=C[C@@H]1C2`, in that order: 1000 nM, 12 nM and 250 nM.
The like results for `NC(=O)[C@@H]1[C@H](Nc2nc(Nc3ccc(N4CCOCC4)nc3)ncc2-c2cccc(F)c2)[C@H]2C=C[C@@H]1C2` were, in that order, 450 nM, 25 nM and 210 nM.
For `CN1CCN(c2cc(F)cc(Nc3ncc(-c4cccc(F)c4)c(N[C@H]4[C@@H](C(N)=O)[C@@H]5C=C[C@H]4C5)n3)c2)CC1`, in that order: 100 nM, 18 nM and 260 nM.
Take `NC(=O)[C@@H]1[C@H](Nc2nc(Nc3ccc(OCCN4CCCC4)cc3)ncc2-c2cccnc2)[C@H]2C=C[C@@H]1C2`: the IC50 in data set [1] is 380 nM; in data set [2] it was 103 nM; in the data set with THP-1, 700 nM.
On to `NC(=O)[C@@H]1[C@H](Nc2nc(Nc3cccc(C(=O)N4CCCC4)c3)ncc2-c2ccccc2)[C@H]2C=C[C@@H]1C2`, for which the IC50 stood at 170 nM in [1] and 220 nM in the data set with THP-1.
`NC(=O)[C@@H]1[C@H](Nc2nc(Nc3cccc(C(=O)N4CCCC4)c3)ncc2-c2ccc(F)cc2)[C@H]2C=C[C@@H]1C2`: the IC50 with THP-1 was determined as 460 nM.
For the compound `CN1CCN(C(=O)c2cccc(Nc3ncc(-c4cccc(F)c4)c(N[C@H]4[C@@H](C(N)=O)[C@@H]5C=C[C@H]4C5)n3)c2)CC1`, the IC50 was found to be 48 nM in data set [1], 5 nM in data set [2] and 130 nM with THP-1.
As for `NC(=O)[C@@H]1[C@H](Nc2nc(Nc3cccc(C(=O)N4CCCC4)c3)ncc2-c2ccccc2F)[C@H]2C=C[C@@H]1C2`, the IC50 in data set [2] is 11 nM; in the data set on THP-1, 130 nM.
Consider `NC(=O)[C@@H]1[C@H](Nc2nc(Nc3cccc(C(=O)N4CCCC4)c3)ncc2C2CC2)[C@H]2C=C[C@@H]1C2`, for which the IC50 with THP-1 amounted to 90 nM.
Regarding `Cc1cc(Nc2ncc(-c3cccnc3)c(N[C@H]3[C@@H](C(N)=O)[C@@H]4C=C[C@H]3C4)n2)ccc1OCCN1CCCC1`, the IC50 in data set [1] is 450 nM; in data set [2], 179 nM; in the data set on THP-1, 1100 nM.
The like results for `NC(=O)[C@@H]1[C@H](Nc2nc(Nc3cccc(C(=O)N4CCOCC4)c3)ncc2-c2cccc(F)c2)[C@H]2C=C[C@@H]1C2` were, in that order, 94 nM, 14 nM and 220 nM.
For `CN1CCN(c2cc(Nc3ncc(-c4cccc(F)c4)c(N[C@H]4[C@@H](C(N)=O)[C@@H]5C=C[C@H]4C5)n3)ccn2)CC1`, in that order: 120 nM, 6 nM and 50 nM.
In the case of `N#Cc1cccc(-c2cnc(Nc3cccc(C(=O)N4CCCC4)c3)nc2N[C@H]2[C@@H](C(N)=O)[C@@H]3C=C[C@H]2C3)c1`, the IC50 in [1] worked out at 100 nM; in the data set with THP-1 it was 280 nM.
As to `NC(=O)[C@@H]1[C@H](Nc2nc(Nc3ccnc(N4CCOCC4)c3)ncc2-c2cccc(F)c2)[C@H]2C=C[C@@H]1C2`, the figures for the IC50 (in data set [1]; in [2]; with THP-1) were 160 nM, 8 nM and 40 nM, respectively.
The like results for `NC(=O)[C@@H]1[C@H](Nc2nc(Nc3ccnc(N4CCCC4)c3)ncc2-c2cccc(F)c2)[C@H]2C=C[C@@H]1C2` were, in that order, 2400 nM, 33 nM and 280 nM.
What is called inhibition in vivo is the drop in the measured response relative to a control, in per cent. With `NC(=O)[C@@H]1[C@H](Nc2nc(Nc3cccc(C(=O)N4CCCC4)c3)ncc2-c2ccnc(F)c2)[C@H]2C=C[C@@H]1C2`, the concentration at 1 h in data set [3] stood at 6820 ng/mL. Besides, the IC50 in the data set with Blood worked out at 510 nM; in the data set with THP-1 it was 100 nM; in the data set with HUVEC [4] it was 120 nM; in [5] it was 110 nM; with HUVEC [6], 110 nM. Moreover, in the data set with Mus musculus, the inhibition in vivo at 75 mg/kg came out at 64%.
Regarding `NC(=O)[C@@H]1[C@H](Nc2nc(Nc3cccc(C(=O)N4CCCC4)c3)ncc2-c2cccnc2)[C@H]2C=C[C@@H]1C2`, in the data set with THP-1, the IC50 worked out at 320 nM.
